Values of other authors as cited in patent US11007152B2, “Pharmaceutical composition comprising amorphous lenalidomide and an antioxidant” (Synthon B.V., priority 2015, dated 2021).

## Nc1cccc2c1CN(C1CCC(=O)NC1=O)C2=O (racemic) [Lenalidomide, (RS)-3-(4-Amino-1-oxo 1,3-dihydro-2H-isoindol-2-yl)piperidine-2,6-dione]
  solubility in water: slightly soluble
